Measurements: patent US20150133495A1 (ViroCura Therapeutics, Inc., priority 2013, published 2015)

What follows are compounds tested on HCV replicon (HCV1b sub-genomic, Huh-7 cells) (assay: HCV replicon RNA replication assay (luciferase reporter)). Settings: Hepatitis C virus, Huh-7.
Format: cell-based, Hepatitis C virus (CON-1 genotype b)
Experimental: All curve fitting was conducted using non-linear regression analyses from PRISM (version 4.0c, GraphPad Inc.) and the determination of Rmax and EC50 or IC50 parameters were obtained from sigmoidal dose-response phase (variable slope) equation.
The replicon HCV1b is generated based on the wild-type sequence CON-1 genotype b (GenBank accession number AJ238799; Lohmann et al., Science 1999, 285: 110-113) and expressed the sub-genomic fragment HCV NS3-NS4A-NS4B-NS5A-NS5B. The replicon contain a hybrid HCV-IRES 5′UTR, a modified luciferase reporter gene expressed as a luciferase-Ubi-neomycin phosphotransferase gene fusion and an EMCV IRES NS3-NS5B subgenomic fragment with its 3′UTR. To generate cell lines harboring the replicon, Huh-7 cells are electroporated with purified in vitro HCV1b RNA transcripts and stable cell lines are selected in the presence of G418. Stable replicon cell lines are established as described in Science 1999, 285: 110-113. The amount of luciferase expressed by selected cells directly correlates with the level of HCV RNA replication, as measured by real-time PCR.
Stable HCV replicon cells are maintained in Dulbecco's Modified Eagle Medium (DMEM) supplemented with 10% FBS and 0.5 mg/ml G418. During the assay, DMEM supplemented with 10% FBS, containing 0.5% DMSO and lacking G418 are used as assay medium. For the assay, cell stocks are trypsinized and diluted in assay medium to distribute 7,500 cells in 96-well plates. The plates are then incubated at 37° until compound addition. Serial dilutions of the test compound are prepared in 100% DMSO, before dilution in assay medium to a final DMSO concentration of 0.5% to generate a concentration dose response curves. A fixed volume from each well of the compound dilution plate is transferred to a corresponding well of the cell culture plate. The cell culture plate is incubated at 37° C. with 5% CO2 for 72 hours. Following the 72 h incubation period, the medium is aspirated from the 96-well assay plate and a volume of 50_l of lysis buffer 100 mM Tris acetate, 20 mM Mg acetate, 2 mM EGTA, 3.6 mM ATP, 1% Brij 58, 0.7%_-mercaptoethanol containing 45_g/ml luciferine (pH 7.9) is added to each well. The luciferase activity is determined using the luciferase substrate and the luminescence is detected on a MicroBeta JET 1450 LSC & Luminescence Counter (Perkin Elmer) instrument. The luminescence in each well of the culture plate is a measure of the amount of HCV RNA replication in the presence of various concentrations of inhibitor. The % inhibition is calculated for each inhibitor concentration and used to determine the concentration that results in 50% inhibition of HCV replication (EC50).

`Cc1noc(-c2ccc(Cl)cc2)c1C(=O)O/N=C(\N)c1ccc(Cl)cc1` [Compound 60, reference compound] and `Cc1noc(C)c1C(=O)O/N=C(\N)c1ccc(-c2csnn2)cc1` [Compound 62, reference compound] fall in the same range of EC50: 500 to 1000 nM for the first, 500 to 1000 nM for the second.

First: Cc1noc(C)c1C(=O)O/N=C(\N)Cc1ccc(-c2csnn2)cc1 [Compound 63, reference compound]
Second: Cc1onc(-c2ccccc2Cl)c1C(=O)O/N=C1/CCCCN1 [Compound 64, reference compound]
The EC50 of the first is higher: 500 to 1000 nM for the first, < 500 nM for the second. The second is the more potent here.

Same assay, conditions: Hepatitis C virus, Huh-7, 72 h, read-out: EC50 (Range)

First: CCCCN/C(=N\OC(=O)c1c(-c2ccccc2Cl)noc1C)c1ccc2c(c1)OCO2 [Example 20, (Z)—N-butyl-N′-((3-(2-chlorophenyl)-5-methylisoxazole-4-carbonyl)oxy)benzo[d][1,3]dioxole-5-carboximidamide]
Second: Cc1onc(-c2ccccc2Cl)c1C(=O)O/N=C(/c1ccc2c(c1)OCO2)N(C)C [Example 19, (Z)—N′-((3-(2-chlorophenyl)-5-methylisoxazole-4-carbonyl)oxy)-N,N-dimethylbenzo[d][1,3]dioxole-5-carboximidamide]
The EC50 of the first is lower: < 500 nM for the first, 1000 to 10000 nM for the second. The first is the more potent here.

`Cc1cccc(C)c1C(=O)O/N=C(\N)c1ccc(OCc2ccc(Cl)cc2)cc1` [Example 40, (Z)-4-((4-chlorobenzyl)oxy)-N′-((2,6-dimethylbenzoyl)oxy)benzimidamide] and `Cc1cccc(-c2ccccc2)c1C(=O)O/N=C(\N)c1ccc(OCc2ccc(Cl)cc2)cc1` [Example 29, (Z)-4-((4-chlorobenzyl)oxy)-N′-((3-methyl-[1,1′-biphenyl]-2-carbonyl)oxy)benzimidamide] cannot be ordered by EC50: < 500 nM for the first, < 500 nM for the second.

`Cc1ccc2ccccc2c1C(=O)O/N=C(\N)c1ccc2c(c1)OCO2` [Example 43, (Z)—N′-((2-methyl-1-naphthoyl)oxy)benzo[d][1,3]dioxole-5-carboximidamide] and `COCc1onc(-c2ccccc2Cl)c1C(=O)O/N=C(\N)c1ccc2c(c1)OCO2` [Example 16, (Z)—N′-((3-(2-chlorophenyl)-5-(methoxymethyl)isoxazole-4-carbonyl)oxy)benzo[d][1,3]dioxole-5-carboximidamide] fall in the same range of EC50: 500 to 1000 nM for the first, 500 to 1000 nM for the second.

First: COc1ccccc1C/C(N)=N/OC(=O)c1c(C)cccc1C [Example 7, (Z)—N′-((2,6-dimethylbenzoyl)oxy)-2-(2-methoxyphenyl)acetimidamide]
Second: COc1ccc(C/C(N)=N/OC(=O)c2c(C)cccc2C)c(OC)c1 [Example 2, (Z)-2-(2,4-dimethoxyphenyl)-N′-((2,6-dimethylbenzoyl)oxy)acetimidamide]
The EC50 of the first is higher: 500 to 1000 nM for the first, < 500 nM for the second. The second is the more potent here.

First: Cc1onc(-c2ccccc2Cl)c1C(=O)O/N=C(\N)c1ccc2ccccc2n1 [Example 47, (Z)—N′-((3-(2-chlorophenyl)-5-methylisoxazole-4-carbonyl)oxy)quinoline-2-carboximidamide]
Second: COc1ccc(/C(N)=N/OC(=O)c2c(-c3ccccc3Cl)noc2C)cc1 [Example 46, (Z)—N′-((3-(2-chlorophenyl)-5-methylisoxazole-4-carbonyl)oxy)-4-methoxybenzimidamide]
The EC50 of the first is higher: 1000 to 10000 nM for the first, 500 to 1000 nM for the second. The second is the more potent here.

Compared with `Cc1cccc(C)c1C(=O)O/N=C(\N)c1ccc(-c2csnn2)cc1` [Example 42, (Z)—N′-((2,6-dimethylbenzoyl)oxy)-4-(1,2,3-thiadiazol-4-yl)benzimidamide], `Cc1noc(C)c1C(=O)O/N=C(\N)c1ccc(Oc2ccccc2)cc1` [Example 31, (Z)—N′-((3,5-dimethylisoxazole-4-carbonyl)oxy)-4-phenoxybenzimidamide] is higher in EC50: 500 to 1000 nM for the first, 1000 to 10000 nM for the second. The first is the more potent here.

Compared with `Cc1ccc(/C(N)=N/OC(=O)c2cc(C)oc2C)cc1` [Example 25, (Z)—N′-((2,5-dimethylfuran-3-carbonyl)oxy)-4-methylbenzimidamide], `Cc1cc(C)c(C(=O)O/N=C(\N)c2ccc3c(c2)OCO3)c(C)c1` [Example 26, (Z)—N′-((2,4,6-rimethylbenzoyl)oxy)benzo[d][1,3]dioxole-5-carboximidamide] is lower in EC50: 1000 to 10000 nM for the first, < 500 nM for the second.

First: N/C(=N\OC(=O)c1c(-c2ccccc2Cl)noc1C1CC1)c1ccc2c(c1)OCO2 [Example 11, (Z)—N′-((3-(2-chlorophenyl)-5-cyclopropylisoxazole-4-carbonyl)oxy)benzo[d][1,3]dioxole-5-carboximidamide]
Second: N/C(=N\OC(=O)c1c(-c2ccccc2Cl)noc1-c1ccccc1)c1ccc2c(c1)OCO2 [Example 18, (Z)—N′-((3-(2-chlorophenyl)-5-phenylisoxazole-4-carbonyl)oxy)benzo[d][1,3]dioxole-5-carboximidamide]
The EC50 of the first is lower: < 500 nM for the first, 500 to 1000 nM for the second.

First: Cc1onc(-c2ccccc2Cl)c1C(=O)O/N=C(\N)c1cccc(Br)c1 [Example 34, (Z)-3-Bromo-N′-((3-(2-chlorophenyl)-5-methylisoxazole-4-carbonyl)oxy)benzimidamide]
Second: Cc1onc(-c2ccccc2Cl)c1C(=O)O/N=C(\N)CCc1ccc(Br)cc1 [Example 10, (Z)-3-(4-bromophenyl)-N′-((3-(2-chlorophenyl)-5-methylisoxazole-4-carbonyl)oxy)propanimidamide]
The EC50 of the first is higher: 1000 to 10000 nM for the first, < 500 nM for the second. The second is the more potent here.

With `COc1ccccc1C/C(N)=N/OC(=O)c1c(-c2ccccc2Cl)noc1C` [Example 22] the EC50 was < 500 nM.
